Measured values taken from publication PMC11527692, “Tailored biosynthesis of diosmin through reconstitution of the flavonoid pathway in Nicotiana benthamiana” (Frontiers in Plant Science, 2024).

Columns and labels:
Cs1,6RhaT = target: T1, Cs1,6RhaT (Citrus sinensis, UniProt A7ISD3); assay: substrate feeding of E. coli expressing the GST fusion, UPLC-DAD-QToF/MS of product; assay type: cell-based; settings: product diosmin; 100 μM substrate, 28 °C, 3 h; whole culture
T1 sequence (A7ISD3 1-475): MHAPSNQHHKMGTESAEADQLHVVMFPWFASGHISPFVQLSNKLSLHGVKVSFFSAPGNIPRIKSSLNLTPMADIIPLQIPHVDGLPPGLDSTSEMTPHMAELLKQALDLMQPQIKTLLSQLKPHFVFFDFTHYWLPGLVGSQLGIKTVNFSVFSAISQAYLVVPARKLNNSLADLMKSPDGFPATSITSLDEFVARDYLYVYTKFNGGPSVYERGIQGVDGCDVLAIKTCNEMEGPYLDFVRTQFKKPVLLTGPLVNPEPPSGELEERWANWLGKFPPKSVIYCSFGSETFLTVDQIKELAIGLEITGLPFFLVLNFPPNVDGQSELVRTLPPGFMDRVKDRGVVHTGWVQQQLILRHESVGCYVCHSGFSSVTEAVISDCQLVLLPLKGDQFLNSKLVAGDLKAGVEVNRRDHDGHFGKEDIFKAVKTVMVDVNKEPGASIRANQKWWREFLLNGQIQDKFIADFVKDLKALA

PaF4′OMT = target: T2, PaF4′OMT (Plagiochasma appendiculatum, UniProt A0A1X9Y2Y6); assay: substrate feeding of E. coli expressing the GST fusion, HPLC of product; assay type: cell-based; settings: product diosmetin; 100 μM substrate (methods name diosmetin, results name luteolin), 28 °C, 3 h; whole culture
T2 sequence (A0A1X9Y2Y6 1-391): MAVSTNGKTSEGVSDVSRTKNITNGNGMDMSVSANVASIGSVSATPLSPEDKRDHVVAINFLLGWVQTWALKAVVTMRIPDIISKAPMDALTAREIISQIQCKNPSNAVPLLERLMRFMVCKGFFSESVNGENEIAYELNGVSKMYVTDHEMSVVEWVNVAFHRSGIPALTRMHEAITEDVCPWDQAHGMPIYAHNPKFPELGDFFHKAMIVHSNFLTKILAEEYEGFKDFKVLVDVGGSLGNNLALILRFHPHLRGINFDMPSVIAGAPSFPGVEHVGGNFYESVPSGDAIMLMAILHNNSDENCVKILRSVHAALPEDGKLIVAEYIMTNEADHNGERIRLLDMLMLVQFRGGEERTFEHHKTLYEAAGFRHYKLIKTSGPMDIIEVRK

Structure (SMILES)	substrate feeding of E. coli expressing the GST fusion, UPLC-DAD-QToF/MS of prod (Cs1,6RhaT)	substrate feeding of E. coli expressing the GST fusion, HPLC of product (PaF4′OMT)
COc1ccc(-c2cc(=O)c3c(O)cc(O[C@@H]4O[C@H](CO)[C@@H](O)[C@H](O)[C@H]4O)cc3o2)cc1O [diosmetin 7-O-β-D-glucopyranoside]	the cells expressing Cs1,6RhaT produced the most diosmin	–
O=c1cc(-c2ccc(O)c(O)c2)oc2cc(O)cc(O)c12 [luteolin]	–	PaF4′OMT produced the most diosmetin from luteolin
